In patent US10479795B2 (Incyte Corporation, priority 2016, dated 2019):
Where a name gives a salt, the structure may show the parent alone. Read-outs that look alike come from different tables or passages of the source.

How the values were obtained:
[1] = tested on: Phosphorylated Ribosomal Protein S6 (RPS6); experiment: THP-1 RPS6 ELISA Assay; assay type: cell-based, Human; details: THP-1 cells, read-out: PI3Kγ_THP1_RPS6_ELISA IC50
Experimental: To measure the Phosphorylated Ribosomal Protein S6 (RPS6) in cell lysates, THP-1 cells (Human Acute Monocytic Leukemia) are purchased from ATCC (Manassas, Va.) and maintained in RPMI with 10% FBS (Gibco/Life Technologies, Carlsbad, Calif.). For the assay, THP-1 cells are serum starved overnight in RPMI, then plated in RPMI (2×10^5 cells/well in 90 μL) into 96-well flat-bottom tissue culture treated plates (Corning, Corning, N.Y.), in the presence or absence of a concentration range of test compounds. Covered plates are incubated for 2 hours at 37° C., 5% CO2 then treated with or without 10 nM MCP-1 (MYBioSource, San Diego, Calif.) for 15 minutes at 37° C., 5% CO2. Plates are centrifuged at 1600 RPM and supernatants are removed. Cells are lysed in Lysis Buffer (Cell Signaling, Danvers, Mass.) with Protease Inhibitor (Calbiochem/EMD, Germany), PMSF (Sigma, St Louis Mo.), HALTS (Thermo Fisher, Rockford, Ill.) for 30 min on wet ice. Cell lysates are frozen at −80° C. before testing. The lysates are tested in the Human/Mouse/Rat Phospho-RPS6 ELISA (R&D Systems, Inc. Minn, Minn.). The plate is measured using a microplate reader (SpectraMax M5 —Molecular Devices, LLC Sunnyvale, Calif.) set to 450 nm with a wavelength correction of 540. IC50 determination is performed by fitting the curve of inhibitor percent inhibition versus the log of the inhibitor concentration using the GraphPad Prism 5.0 software.

[2] = target: PI3Kγ (p110γ) Recombinant Human Protein (Homo sapiens (Human), UniProt P48736); experiment: PI3K-γ Scintillation Proximity Assay; assay type: biochemical; details: read-out: PI3Kγ IC50
Sequence of PI3Kγ (p110γ) Recombinant Human Protein (P48736 whole entry): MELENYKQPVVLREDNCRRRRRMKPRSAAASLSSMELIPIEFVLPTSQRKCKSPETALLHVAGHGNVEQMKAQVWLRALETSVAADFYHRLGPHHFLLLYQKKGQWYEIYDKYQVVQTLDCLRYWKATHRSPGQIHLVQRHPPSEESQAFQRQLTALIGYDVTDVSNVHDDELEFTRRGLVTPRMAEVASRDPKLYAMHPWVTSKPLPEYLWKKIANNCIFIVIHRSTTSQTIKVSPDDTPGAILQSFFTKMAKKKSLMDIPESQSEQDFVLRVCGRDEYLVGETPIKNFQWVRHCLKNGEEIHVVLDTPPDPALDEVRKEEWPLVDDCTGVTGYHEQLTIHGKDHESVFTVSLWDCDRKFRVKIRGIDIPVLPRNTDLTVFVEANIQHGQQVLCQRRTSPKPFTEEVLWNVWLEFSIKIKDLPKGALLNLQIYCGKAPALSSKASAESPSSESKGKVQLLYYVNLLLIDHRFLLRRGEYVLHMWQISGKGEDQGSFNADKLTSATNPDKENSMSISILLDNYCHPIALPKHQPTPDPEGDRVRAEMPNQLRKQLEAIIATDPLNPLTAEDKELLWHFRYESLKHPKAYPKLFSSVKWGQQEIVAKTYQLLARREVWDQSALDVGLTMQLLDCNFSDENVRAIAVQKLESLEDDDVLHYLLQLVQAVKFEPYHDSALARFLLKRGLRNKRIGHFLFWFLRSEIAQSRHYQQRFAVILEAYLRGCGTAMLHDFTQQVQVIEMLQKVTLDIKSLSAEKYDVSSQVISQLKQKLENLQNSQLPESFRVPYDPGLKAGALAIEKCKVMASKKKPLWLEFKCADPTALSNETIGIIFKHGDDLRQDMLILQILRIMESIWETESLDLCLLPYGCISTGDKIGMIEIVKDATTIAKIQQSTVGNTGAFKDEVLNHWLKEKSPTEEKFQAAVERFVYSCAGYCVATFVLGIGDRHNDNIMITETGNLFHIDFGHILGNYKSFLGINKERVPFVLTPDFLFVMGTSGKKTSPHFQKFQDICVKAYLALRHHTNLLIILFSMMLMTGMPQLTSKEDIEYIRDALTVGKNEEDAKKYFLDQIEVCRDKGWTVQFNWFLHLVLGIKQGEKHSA
In short: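 Recombinant human p110γ assayed at room temperature in 20 mM MOPS pH 6.7, 10 mM MgCl2, 5 mM DTT, 0.03% CHAPS, 2% DMSO, with 20 μM PIP2 and 2 μM ATP plus [γ-33P]ATP. Product captured on WGA SPA beads overnight and counted; IC50 fitted from % of solvent-control activity versus log inhibitor concentration.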

[3] = target: PI3Kδ (p110δ/p85α) Recombinant Human Protein (Homo sapiens (Human), UniProt O00329); experiment: PI3Kδ Scintillation Proximity Assay; assay type: biochemical
Sequence of PI3Kδ (p110δ/p85α) Recombinant Human Protein (O00329 whole entry): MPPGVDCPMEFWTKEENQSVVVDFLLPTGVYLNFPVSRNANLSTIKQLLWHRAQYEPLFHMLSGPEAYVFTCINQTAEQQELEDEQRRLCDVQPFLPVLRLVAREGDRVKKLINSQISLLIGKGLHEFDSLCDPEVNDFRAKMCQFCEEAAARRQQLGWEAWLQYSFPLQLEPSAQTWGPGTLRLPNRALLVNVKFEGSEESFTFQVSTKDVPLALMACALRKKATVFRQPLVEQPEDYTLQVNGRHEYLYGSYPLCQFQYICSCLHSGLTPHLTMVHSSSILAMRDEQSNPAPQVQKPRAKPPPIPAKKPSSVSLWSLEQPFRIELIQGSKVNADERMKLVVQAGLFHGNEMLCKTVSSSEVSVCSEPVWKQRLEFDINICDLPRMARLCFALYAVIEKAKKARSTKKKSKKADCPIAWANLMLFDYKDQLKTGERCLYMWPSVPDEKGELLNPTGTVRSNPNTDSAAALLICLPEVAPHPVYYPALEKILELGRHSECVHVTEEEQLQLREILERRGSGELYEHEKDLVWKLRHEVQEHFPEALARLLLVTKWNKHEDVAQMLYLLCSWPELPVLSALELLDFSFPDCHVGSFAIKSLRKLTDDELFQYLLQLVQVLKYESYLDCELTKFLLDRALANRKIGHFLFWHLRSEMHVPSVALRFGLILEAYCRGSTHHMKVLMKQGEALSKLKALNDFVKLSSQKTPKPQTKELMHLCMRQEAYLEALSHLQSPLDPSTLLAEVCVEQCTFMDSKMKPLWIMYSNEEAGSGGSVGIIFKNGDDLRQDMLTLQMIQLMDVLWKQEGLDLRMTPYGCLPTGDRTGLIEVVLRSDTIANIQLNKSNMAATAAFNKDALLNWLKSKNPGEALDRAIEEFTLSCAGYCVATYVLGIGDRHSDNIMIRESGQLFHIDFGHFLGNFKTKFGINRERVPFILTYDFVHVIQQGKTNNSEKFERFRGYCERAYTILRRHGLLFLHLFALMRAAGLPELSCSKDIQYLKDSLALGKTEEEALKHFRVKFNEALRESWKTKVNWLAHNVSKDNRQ
Sequence of PI3Kδ (p110δ/p85α) Recombinant Human Protein (P27986 whole entry partner): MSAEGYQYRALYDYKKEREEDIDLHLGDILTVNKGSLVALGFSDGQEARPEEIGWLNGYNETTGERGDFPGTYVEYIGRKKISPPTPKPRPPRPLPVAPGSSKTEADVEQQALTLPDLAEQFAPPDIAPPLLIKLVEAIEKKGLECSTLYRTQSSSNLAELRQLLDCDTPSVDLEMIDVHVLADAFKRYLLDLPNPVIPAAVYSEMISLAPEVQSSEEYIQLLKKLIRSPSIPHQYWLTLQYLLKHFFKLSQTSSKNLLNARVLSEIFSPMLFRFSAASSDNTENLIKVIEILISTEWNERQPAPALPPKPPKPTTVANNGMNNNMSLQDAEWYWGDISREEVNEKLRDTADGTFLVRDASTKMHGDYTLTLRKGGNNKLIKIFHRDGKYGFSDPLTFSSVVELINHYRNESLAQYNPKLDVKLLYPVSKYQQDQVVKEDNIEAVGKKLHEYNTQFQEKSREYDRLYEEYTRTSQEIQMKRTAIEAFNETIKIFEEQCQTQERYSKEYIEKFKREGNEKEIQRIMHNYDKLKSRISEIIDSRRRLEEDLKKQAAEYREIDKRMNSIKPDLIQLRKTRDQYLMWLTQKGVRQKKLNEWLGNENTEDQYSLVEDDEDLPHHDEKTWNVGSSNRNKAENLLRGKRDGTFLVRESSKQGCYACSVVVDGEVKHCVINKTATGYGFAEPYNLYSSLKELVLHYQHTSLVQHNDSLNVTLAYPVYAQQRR
In short: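 Recombinant human p110δ/p85α (3.4 nM) with 20 μM PIP2 and 2 μM ATP plus [γ-33P]ATP, in 20 mM MOPS pH 6.7, 10 mM MgCl2, 5 mM DTT, 0.03% CHAPS, 2% DMSO; 120 min at room temperature. Product captured on WGA SPA beads, scintillation counted; IC50 from percent-of-control curves.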

Compound	IC50 ([1]; Homo sapiens) [nM]	IC50 [2] [nM]	IC50 [3] [nM]	IC50 [1] [nM]
Cc1ccc(S(=O)(=O)N[C@H]2CC[C@H](O)CC2)cc1-c1cnc2c(N)nc(-c3ccc(F)cc3)cn12 [Example 20, 3-[8-Amino-6-(4-fluorophenyl)imidazo[1,2-a]pyrazin-3-yl]-N-(trans-4-hydroxycyclohexyl)-4-methylbenzenesulfonamide]	< 100	< 100	< 100	
Cc1ccc(S(=O)(=O)N[C@H]2CC[C@H](O)CC2)cc1-c1cnc2c(N)nc(-c3cccc(F)c3)cn12 [Example 21, 3-[8-Amino-6-(3-fluorophenyl)imidazo[1,2-a]pyrazin-3-yl]-N-(trans-4-hydroxycyclohexyl)-4-methylbenzenesulfonamide]	< 100	< 100	< 100	
Cc1ccc(S(=O)(=O)N[C@H]2CC[C@H](O)CC2)cc1-c1cn2cc(-c3ccccc3F)nc(N)c2n1 [Example 22, 3-[8-Amino-6-(2-fluorophenyl)imidazo[1,2-a]pyrazin-2-yl]-N-(trans-4-hydroxycyclohexyl)-4-methylbenzenesulfonamide]		< 100	< 100	< 100
Cc1ccc(S(=O)(=O)N[C@H]2CC[C@H](O)CC2)cc1-c1cnc2c(N)nc(-c3ccccc3)cn12 [Example 23, 3-[8-Amino-6-phenylimidazo[1,2-a]pyrazin-3-yl]-N-(trans-4-hydroxycyclohexyl)-4-methylbenzenesulfonamide]	< 100	< 100	< 100	
Cc1ccc(S(=O)(=O)N[C@H]2CC[C@H](O)CC2)cc1-c1cn2cc(-c3ccc(C#N)cc3)nc(N)c2n1 [Example 24, 3-[8-Amino-6-(4-cyanophenyl)imidazo[1,2-a]pyrazin-2-yl]-N-(trans-4-hydroxycyclohexyl)-4-methylbenzenesulfonamide]		< 100	< 100	100 to 500
Cc1ccc(S(=O)(=O)N[C@H]2CC[C@H](O)CC2)cc1-c1cnc2c(N)nc(-c3ccncc3)cn12 [Example 25, 3-(8-Amio-6-pyridin-4-ylimidazo[1,2-a]pyrazin-3-yl)-N-(trans-4-hydroxycyclohexyl)-4-methylbenzenesulfonamide]	100 to 500	< 100	100 to 500	
Cc1ccc(S(=O)(=O)N[C@H]2CC[C@H](O)CC2)cc1-c1cnc2c(N)nc(-c3cccnc3)cn12 [Example 26, 3-(8-Amino-6-pyridin-3-ylimidazo[1,2-a]pyrazin-3-yl)-N-(trans-4-hydroxycyclohexyl)-4-methylbenzenesulfonamide]	100 to 500	< 100	< 100	
Cc1ccc(S(=O)(=O)N[C@H]2CC[C@H](O)CC2)cc1-c1cnc2c(N)nc(-c3cccs3)cn12 [Example 27, 3-[8-Amino-6-(2-thienyl)imidazo[1,2-a]pyrazin-3-yl]-N-(trans-4-hydroxycyclohexyl)-4-methylbenzenesulfonamide]	< 100	< 100	100 to 500	
Cc1ccc(S(=O)(=O)N[C@H]2CC[C@H](O)CC2)cc1-c1cnc2c(N)nc(-c3ccnn3C)cn12 [Example 28, 3-[8-Amino-6-(1-methyl-1H-pyrazol-5-yl)imidazo[1,2-a]pyrazin-3-yl]-N-(trans-4-hydroxycyclohexyl)-4-methylbenzenesulfonamide]	100 to 500	< 100	100 to 500	
Cc1ccc(S(=O)(=O)N[C@H]2CC[C@H](O)CC2)cc1-c1cnc2c(N)nc(-c3cnn(C)c3)cn12 [Example 29, 3-[8-Amino-6-(1-methyl-1H-pyrazol-4-yl)imidazo[1,2-a]pyrazin-3-yl]-N-(trans-4-hydroxycyclohexyl)-4-methylbenzenesulfonamide]	> 1000	< 100	100 to 500	
COc1cccc(-c2cn3c(-c4cc(S(=O)(=O)N[C@H]5CC[C@H](O)CC5)ccc4C)cnc3c(N)n2)c1F [Example 30, 3-[8-Amino-6-(2-fluoro-3-methoxyphenyl)imidazo[1,2-a]pyrazin-3-yl]-N-(trans-4-hydroxycyclohexyl)-4-methylbenzenesulfonamide]	< 100	< 100	< 100	
CNC(=O)c1ccc(F)c(-c2cn3c(-c4cc(S(=O)(=O)N[C@H]5CC[C@H](O)CC5)ccc4C)cnc3c(N)n2)c1 [Example 31, 3-[8-Amino-3-(5-{[(trans-4-hydroxycyclohexyl)amino]sulfonyl}-2-methylphenyl)imidazo[1,2-a]pyrazin-6-yl]-4-fluoro-N-methylbenzamide]	> 1000	< 100	< 100	
Cc1ccc(S(=O)(=O)N[C@H]2CC[C@H](O)CC2)cc1-c1cnc2c(N)nc(-c3ccc(CO)cc3F)cn12 [Example 32, 3-{8-Amino-6-[2-fluoro-4-(hydroxymethyl)phenyl]imidazo[1,2-a]pyrazin-3-yl}-N-(trans-4-hydroxycyclohexyl)-4-methylbenzenesulfonamide]	< 100	< 100	< 100	
Cc1ncc(-c2cn3c(-c4cc(S(=O)(=O)N[C@H]5CC[C@H](O)CC5)ccc4C)cnc3c(N)n2)s1 [Example 35, 3-[8-Amino-6-(2-methylthiazol-5-yl)imidazo[1,2-a]pyrazin-3-yl]-N-(trans-4-hydroxycyclohexyl)-4-methylbenzenesulfonamide]	< 100	< 100	100 to 500	
CNc1nc(-c2ccccc2F)cn2c(-c3cc(S(=O)(=O)N[C@H]4CC[C@H](O)CC4)ccc3C)cnc12 [Example 36, 3-[6-(2-Fluorophenyl)-8-(methylamino)imidazo[1,2-a]pyrazin-3-yl]-N-(trans-4-hydroxycyclohexyl)-4-methylbenzenesulfonamide trifluoroacetate]	< 100	< 100	< 100	
Cc1cn2c(-c3cc(S(=O)(=O)N[C@H]4CC[C@H](O)CC4)ccc3C)cnc2c(N)n1 [Example 37, 3-(8-Amino-6-methylimidazo[1,2-a]pyrazin-3-yl)-N-(trans-4-hydroxycyclohexyl)-4-methylbenzenesulfonamide]	100 to 500	< 100	< 100	
CCc1cn2c(-c3cc(S(=O)(=O)N[C@H]4CC[C@H](O)CC4)ccc3C)cnc2c(N)n1 [Example 38, 3-(8-Amino-6-ethylimidazo[1,2-a]pyrazin-3-yl)-N-(trans-4-hydroxycyclohexyl)-4-methylbenzenesulfonamide]	< 100	< 100	< 100	
Cc1ccc(S(=O)(=O)N[C@H]2CC[C@H](O)CC2)cc1-c1cnc2c(N)ncnn12 [Example 39, 3-(4-Aminoimidazo[2,1-f][1,2,4]triazin-7-yl)-N-(trans-4-hydroxycyclohexyl)-4-methylbenzenesulfonamide]	100 to 500	< 100	100 to 500	
Cc1ccc(-c2cnc3c(N)nccn23)cc1S(=O)(=O)N[C@H]1CC[C@H](O)CC1 [Example 41, 5-(8-Aminoimidazo[1,2-a]pyrazin-3-yl)-N-(trans-4-hydroxycyclohexyl)-2-methylbenzenesulfonamide]	> 1000	< 100	100 to 500	
Nc1nccn2c(-c3cc(S(=O)(=O)N[C@H]4CC[C@H](O)CC4)ccc3F)cnc12 [Example 42, 3-(8-Aminoimidazo[1,2-a]pyrazin-3-yl)-4-fluoro-N-(trans-4-hydroxycyclohexyl)benzenesulfonamide]	500 to 1000	< 100	500 to 2000	
Cc1ccc(S(=O)(=O)NC2CC2)cc1-c1cnc2c(N)nccn12 [Example 47, 3-(8-Aminoimidazo[1,2-a]pyrazin-3-yl)-N-cyclopropyl-4-methylbenzenesulfoanmide]		< 100	500 to 2000	> 1000
Cc1ccc(S(=O)(=O)NCC2CCOC2)cc1-c1cnc2c(N)nccn12 (stereo not drawn) [Example 48, 3-(8-Aminoimidazo[1,2-a]pyrazin-3-yl)-4-methyl-N-(tetrahydrofuran-3-ylmethyl)benzenesulfonamide]	> 1000	< 100	500 to 2000	
Cc1ccc(S(=O)(=O)NC2CCOCC2)cc1-c1cnc2c(N)nccn12 [Example 49, 3-(8-Aminoimidazo[1,2-a]pyrazin-3-yl)-4-methyl-N-(tetrahydro-2H-pyran-4-yl)benzenesulfonamide]	> 1000	< 100	500 to 2000	
